Values after ≈ are worked out from the molar mass of the structure shown.
Assays:
Type in all cases: cell-based
[1] = system: PC-3 (prostate adenocarcinoma); experiment: In vitro cytotoxicity, sulforhodamine B (SRB) method, PC-3; conditions: Homo sapiens; PC-3, SRB method; read-out: cytotoxicity (ED50) PC-3
Method: (§1) The chalcone derivatives of the present invention were evaluated for in vitro cytotoxicity against human carcinoma cell lines using a sulforhodamine B (SRB) method, which was developed in 1989 by the National Cancer Institute (NCI), USA.
(§2) HCT15 (colon adenocarcinoma; ATCC CCL-225), PC-3 (prostate adenocarcinoma; ATCC CRL-1435), and A-549 (lung carcinoma; ATCC CCL-185) cell lines were used. All of these carcinoma cells were sub-cultured at the Korean Research Institute of Bioscience and Biotechnology (KRIBB), Korea.
(§3) The human carcinoma cell lines were cultured in 10% FCS-containing RPMI 1640 medium (Gibco Cat. No. 31800) in an incubator at 37° C. under 5% CO2, and sub-cultured twice per week.
(§4) Cells were detached from the attached surface using 0.25% Trypsin (Sigma) and 3 mM CDTA (1,2-cyclohexane diamine tetraacetic acid, Sigma) in phosphate buffered saline (PBS, Sigma).
(§5) Compounds to be tested (the chalcone derivatives set forth in Table 1) were dissolved in a small amount of dimethylsulfoxide (DMSO, Sigma), and diluted in culture medium to a desired concentration. The final concentration of DMSO was less than 0.5%. The diluted compounds (final concentration: 30, 10, 3, 1 and 0.3 μg/ml) were sterilized through a 0.22-μm microfilter (Millipore). The cytotoxicity of the compounds to human carcinoma cell lines was assessed using a typical SRB method.

A-549 (lung carcinoma) = experiment: In vitro cytotoxicity, sulforhodamine B (SRB) method, A-549; conditions: Homo sapiens, A549; A-549, SRB method; read-out: cytotoxicity (ED50) A-549
Method: as §1, §2, §3, §4, §5

[2] = system: HCT15 (colon adenocarcinoma); experiment: In vitro cytotoxicity, sulforhodamine B (SRB) method, HCT15; conditions: Homo sapiens; HCT-15, SRB method; read-out: cytotoxicity (ED50) HCT-15
Method: as §1, §2, §3, §4, §5

| SMILES | IC50 [1] [µg/mL] | IC50 (A-549 (lung carcinoma)) [µg/mL] | IC50 [2] [µg/mL] |
| --- | --- | --- | --- |
| O=C(/C=C/c1ccc(O)cc1)c1ccc(NS(=O)(=O)c2cccc(O)c2)cc1 [Compound 15, 4′-(m-hydroxybenzenesulfonylamino)-4-hydroxychalcone] | 41 (≈ 104 µM) | 43 (≈ 109 µM) | 33 (≈ 83.5 µM) |
| O=C(/C=C/c1ccccc1O)c1ccc(OS(=O)(=O)c2ccc(O)cc2)cc1 [Compound 86, 4′-(p-hydroxybenzenesulfonate)-2-hydroxychalcone] | 34 (≈ 85.8 µM) | 30 (≈ 75.7 µM) | 26 (≈ 65.6 µM) |
| Cc1ccc(S(=O)(=O)Nc2cccc(C(=O)/C=C/c3ccc(O)c(O)c3)c2)cc1 [Compound 46, 3′-(p-toluenesulfonylamino)-3,4-dihydroxychalcone] | 8 (≈ 19.5 µM) | 13 (≈ 31.7 µM) | 9 (≈ 22 µM) |
| O=C(/C=C/c1ccccc1O)c1cccc(NS(=O)(=O)c2cccc(O)c2)c1 [Compound 20, 3′-(m-hydroxybenzenesulfonylamino)-2-hydroxychalcone] | 39 (≈ 98.6 µM) | 35 (≈ 88.5 µM) | 40 (≈ 101 µM) |
| Cc1ccc(S(=O)(=O)Nc2ccc(C(=O)/C=C/c3cccc(O)c3)cc2)cc1 [Compound 2, 4′-(p-toluenesulfonylamino)-3-hydroxychalcone] | 39 (≈ 99.1 µM) | 36 (≈ 91.5 µM) | 37 (≈ 94 µM) |
| O=C(/C=C/c1ccccc1O)c1ccc(OS(=O)(=O)c2cccc(O)c2)cc1 [Compound 89, 4′-(m-hydroxybenzenesulfonate)-2-hydroxychalcone] | 33 (≈ 83.2 µM) | 37 (≈ 93.3 µM) | 24 (≈ 60.5 µM) |
| O=C(/C=C/c1ccc(O)cc1)c1ccc(OS(=O)(=O)c2ccc(O)cc2)cc1 [Compound 84, 4′-(p-hydroxybenzenesulfonate)-4-hydroxychalcone] | 22 (≈ 55.5 µM) | 38 (≈ 95.9 µM) | 32 (≈ 80.7 µM) |
| O=C(/C=C/c1ccc(O)cc1)c1ccccc1NS(=O)(=O)c1cccc(O)c1 [Compound 21, 2′-(m-hydroxybenzenesulfonylamino)-4-hydroxychalcone] | 43 (≈ 109 µM) | 39 (≈ 98.6 µM) | 31 (≈ 78.4 µM) |
| O=C(/C=C/c1ccc(O)c(O)c1)c1cccc(NS(=O)(=O)c2cccc(O)c2)c1 [Compound 64, 3′-(m-hydroxybenzenesulfonylamino)-3,4-dihydroxychalcone] | 7 (≈ 17 µM) | 3 (≈ 7.29 µM) | 4 (≈ 9.72 µM) |
| O=C(/C=C/c1cccc(O)c1O)c1ccc(OS(=O)(=O)c2cccc(O)c2)cc1 [Compound 95, 4′-(m-hydroxybenzenesulfonate)-2,3-dihydroxychalcone] | 11 (≈ 26.7 µM) | 9 (≈ 21.8 µM) | 9 (≈ 21.8 µM) |
| O=C(/C=C/c1ccc(O)c(O)c1)c1ccc(NS(=O)(=O)c2ccccc2F)cc1 [Compound 74, 4′-(o-fluorobenzensulfonylamino)-3,4-dihydroxychalcone] | 14 (≈ 33.9 µM) | 11 (≈ 26.6 µM) | 8 (≈ 19.4 µM) |
| O=C(/C=C/c1cc(O)ccc1O)c1ccc(OS(=O)(=O)c2cccc(O)c2)cc1 [Compound 97, 4′-(m-hydroxybenzenesulfonate)-2,5-dihydroxychalcone] | 8 (≈ 19.4 µM) | 6 (≈ 14.5 µM) | 11 (≈ 26.7 µM) |
| O=C(/C=C/c1cccc(O)c1)c1cccc(NS(=O)(=O)c2ccc(O)cc2)c1 [Compound 10, 3′-(p-hydroxybenzenesulfonylamino)-3-hydroxychalcone] | 32 (≈ 80.9 µM) | 30 (≈ 75.9 µM) | 30 (≈ 75.9 µM) |
| Cc1ccc(S(=O)(=O)Nc2ccc(C(=O)/C=C/c3ccc(O)c(O)c3)cc2)cc1 [Compound 42, 4′-(p-toluenesulfonylamino)-3,4-dihydroxychalcone] | 18 (≈ 44 µM) | 10 (≈ 24.4 µM) | 7 (≈ 17.1 µM) |
| O=C(/C=C/c1cccc(O)c1)c1ccc(OS(=O)(=O)c2ccc(O)cc2)cc1 [Compound 85, 4′-(p-hydroxybenzenesulfonate)-3-hydroxychalcone] | 28 (≈ 70.6 µM) | 33 (≈ 83.2 µM) | 29 (≈ 73.2 µM) |
| O=C(/C=C/c1ccc(O)cc1O)c1ccc(NS(=O)(=O)c2cccc(O)c2)cc1 [Compound 62, 4′-(m-hydroxybenzenesulfonylamino)-2,4-dihydroxychalcone] | 8 (≈ 19.4 µM) | 12 (≈ 29.2 µM) | 7 (≈ 17 µM) |
| O=C(/C=C/c1ccc(O)cc1)c1ccc(NS(=O)(=O)c2ccc([N+](=O)[O-])cc2)cc1 [Compound 27, 4′-(p-nitrobenzensulfonylamino)-4-hydroxychalcone] | 47 (≈ 111 µM) | 34 (≈ 80.1 µM) | 41 (≈ 96.6 µM) |
| O=C(/C=C/c1ccccc1O)c1cccc(NS(=O)(=O)c2ccc(O)cc2)c1 [Compound 11, 3′-(p-hydroxybenzenesulfonylamino)-2-hydroxychalcone] | 41 (≈ 104 µM) | 38 (≈ 96.1 µM) | 39 (≈ 98.6 µM) |
| O=C(/C=C/c1ccc(O)cc1O)c1ccc(NS(=O)(=O)c2ccc(O)cc2)cc1 [Compound 50, 4′-(p-hydroxybenzenesulfonylamino)-2,4-dihydroxychalcone] | 9 (≈ 21.9 µM) | 10 (≈ 24.3 µM) | 9 (≈ 21.9 µM) |
| Nc1ccccc1S(=O)(=O)Nc1ccc(C(=O)/C=C/c2ccc(O)cc2)cc1 [Compound 32, 4′-(o-aminobenzensulfonylamino)-4-hydroxychalcone] | 41 (≈ 104 µM) | 45 (≈ 114 µM) | 47 (≈ 119 µM) |
| O=C(/C=C/c1ccc(O)c(O)c1)c1ccccc1NS(=O)(=O)c1ccc(O)cc1 [Compound 56, 2′-(p-hydroxybenzenesulfonylamino)-3,4-dihydroxychalcone] | 6 (≈ 14.6 µM) | 3 (≈ 7.29 µM) | 5 (≈ 12.2 µM) |
| Nc1cccc(S(=O)(=O)Nc2ccc(C(=O)/C=C/c3ccc(O)c(O)c3)cc2)c1 [Compound 79, 4′-(m-aminobenzensulfonylamino)-3,4-dihydroxychalcone] | 15 (≈ 36.5 µM) | 8 (≈ 19.5 µM) | 7 (≈ 17.1 µM) |
| Cc1ccc(S(=O)(=O)Nc2cccc(C(=O)/C=C/c3ccc(O)cc3)c2)cc1 [Compound 4, 3′-(p-toluenesulfonylamino)-4-hydroxychalcone] | 37 (≈ 94 µM) | 34 (≈ 86.4 µM) | 38 (≈ 96.6 µM) |
| Nc1ccccc1S(=O)(=O)Nc1ccc(C(=O)/C=C/c2ccc(O)c(O)c2)cc1 [Compound 80, 4′-(o-aminobenzensulfonylamino)-3,4-dihydroxychalcone] | 23 (≈ 56 µM) | 11 (≈ 26.8 µM) | 13 (≈ 31.7 µM) |
